Measured values taken from patent US20060276385A1, “Anti-inflammatory agents and methods of their use” (priority 2003, published 2006).
Residues, ends and D or L forms follow the SMILES beside them. *: point of attachment. Cbz = O=C(OCc1ccccc1)*

What was measured:
ICAM-1 = ICAM-1 surface expression by FACS analysis in HAEC; type: cell-based, human; conditions: for BMP4-induced ICAM-1 expression in presence of ROS scavenger: HAEC transfected with BMP4; for effect on OS-induced ICAM-1 expression: HAEC exposed to OS 1 day, PEG-catalase or Tiron included during shear
Description: (§1) Endothelial cells: Mouse aortic endothelial cells (MAEC) were cultured and used at passages 4-8 as described (Cai, H., et al. (2002) J Bio Chem 107, 48311-48317). Human aortic endothelial cells (HAEC) purchased from Clonetics were cultured using EGM-2 bullet kit (Clonetics) and used at passages 4-8. Alternatively, endothelial cells obtained from the thoracic aortas of C57/BL6 control (MAE-wt) and p47^phox-null mice (MAE-p47^−/−) were isolated and cultured as described previously (Hwang, J. et al. (2003) J Biol Chem 278:47291-8), and used between passages 4-10.
(§2) Shear stress studies: Confluent endothelial monolayers grown in 100 mm tissue culture dishes were exposed to an arterial level of uni-directional LS (15 dyn/cm^2) in the growth medium by rotating a Teflon cone (0.5° cone angle) as described previously. To mimic unstable shear conditions in vivo, endothelial cells were exposed to OS with directional changes of flow at 1 Hz cycle (±5 dyn/cm^2) by rotating the cone back-and-forth using a stepping motor (Servo Motor) and a computer program (DC Motor Company, Atlanta, Ga.). In some studies, 5 dyn/cm^2 unidirectional LS was used for comparison to OS (±5 dyn/cm^2).
(§3) Fluorescence activated cytometry sorting (FACS) analysis: Treated cells were dissociated into single cell suspensions using 0.25% trypsin-EDTA and resuspended in a FACS buffer (Hank's buffered solution containing 5% FBS). Aliquots of cell suspensions were incubated with ICAM-1 antibody (R&D Systems) for 20 min on ice, washed twice with FACS buffer, and incubated with secondary antibody (fluorescein-5-isothiocyanate- or phycoerytherin-conjugated, Chemicon) for 20 min on ice in the dark. Then samples were washed again, fixed in 1% paraformaldehyde and analyzed by FACS (Calibur, Becton-Dickinson) using CellQuest software. The fluorescence intensity of ICAM-1 and forward cell scattering of 30,000 cells were measured and the geometric means calculated from histograms were shown. In some studies, HAEC were transfected with either BMP4 cloned in a bi-cistronic pAdTrack CMV vector or an empty vector, both expressing green fluorescent protein (GFP), using Lipofectamine 2000. In these experiments, ICAM-1 expression was measured in the red phycoerytherin channel, while the green channel was used to monitor the […] expression-GFP expression was determined by FACS analysis and fluorescence microscopy (20-30% transfection efficiency). Because expression of GFP was similar among different treatment groups within the same experiment, it was unnecessary to normalize ICAM-1 expression data to GFP level. Human recombinant noggin was purchased from R&D Systems and used in all experiments at 50 ng/ml (Dale, L., and Jones, C. M. (1999) Bioessays 21, 751-760; Zimmerman, L. B., et al. (1996) Cell 86, 599-606; Brunei, L. J., et al. (1998) Science 280, 1455-1457).

MAE-p47−/− cells = experiment: Monocyte adhesion to p47phox-null endothelial cells, with or without p47phox transfection; type: cell-based, mouse; conditions: MAE-p47−/− cells transfected with p47phox (rescued); BMP4 20 ng/ml or TNF-α 100 U/ml, 18 hrs
Description: as §1
(§4) Monocyte Adhesion: Monocyte binding was determined under no-flow conditions using THP-1 monocytes (ATCC) by the method described by Chappel et al (Chappell, D. C., et al. (1998) Circ Res 82, 532-539). Briefly, THP-1 cells (5×10^5 cells/ml) were labeled with a fluorescent dye 2′,7′-bis(carboxyethyl)-5(6)-carboxyfluorescein-AM (BCECF, Molecular Probes) (1 mg/ml) in serum-free RPMI medium for 45 min at 37° C. Following exposure to shear stress or BMP treatments in the presence or absence of noggin or vehicle, the endothelial cells were washed in RPMI medium before adding BCECF-loaded THP-1 cells (1:1 ratio). After a 30 min incubation at 37° C. under no-flow conditions, unbound monocytes were removed by washing the endothelial dishes 5 times with Hank's PBS. Bound monocytes were quantified by either counting the cells under a fluorescent microscope or by measuring the fluorescent intensity of cell lysates by fluorescence spectrophotometry using a plate reader. […] Some studies were performed with MAEC pretreated with 5 μg/ml of mouse-ICAM1 antibody (YN1, Southern Biolechonology) (Kevil, C. G., et al. (2001) Am J Physiol Cell Physiol 281, C1442-1447).
Transfection of p47phox: In some studies MAE-p47^−/− cells were trasnfected withp47phox expression vector or an empty vector as described (Hwang, J. et al. (2003) J Biol Chem278-47291-8).
Next, monocyte adhesion was determined in these cells. […] After 18 hrs, cells were washed and monocyte binding was determined as described in FIG. 7. […]

E-selectin = E-selectin surface expression by FACS analysis in HAEC; type: cell-based, human; conditions: TNF-α 100 U/ml for 2 hr as positive control
Description: Fluorescence activated cytometry sorting (FACS) analysis: Treated cells were dissociated into single cell suspensions using 0.25% trypsin-EDTA and resuspended in a FACS buffer (Hank's buffered solution containing 5% FBS). Aliquots of cell suspensions were incubated with ICAM-1 antibody (R&D Systems) for 20 min on ice, washed twice with FACS buffer, and incubated with secondary antibody (fluorescein-5-isothiocyanate- or phycoerytherin-conjugated, Chemicon) for 20 min on ice in the dark. Then samples were washed again, fixed in 1% paraformaldehyde and analyzed by FACS (Calibur, Becton-Dickinson) using CellQuest software. The fluorescence intensity of ICAM-1 and forward cell scattering of 30,000 cells were measured and the geometric means calculated from histograms were shown. […] In these experiments, ICAM-1 expression was measured in the red phycoerytherin channel, while the green channel was used to monitor the […] expression-GFP expression was determined by FACS analysis and fluorescence microscopy (20-30% transfection efficiency). […]
(§5) HAEC treated with OS, BMP4 or static condition were analyzed by FACS using antibodies specific to VCAM-1 (C) and E-selectin (D) as described in panel A using TNFa (1OOU/ml, for 2 hr) as a positive control.

VCAM-1 = VCAM-1 expression in endothelial cells; type: cell-based, human; conditions: HAEC, FACS; TNF-α 100 U/ml for 2 hr as positive control
Description: as §3, §5

MAEC = experiment: Monocyte adhesion: THP-1 monocytes bound to mouse aortic endothelial cells; type: cell-based; conditions: for effect on BMP4-induced monocyte adhesion: MAE-wt, BMP4 20 ng/ml 18 hrs, YN1 5 μg/ml last 30 min, PEG-catalase 100 U/ml 18 hrs or Tiron 10 μmol/L 1 hr pre-incubation
Description: as §1, §2, §4
In FIG. 7B, confluent MAE-wt cells were pre-incubated with cell-permeable PEG-catalase (Catalase, 100 U/ml for 18 hrs) or Tiron (10 μmol/L for 1 hr). Cells were then incubated with 20 ng/ml BMP4 or vehicle for additional 18 hrs. The treated cells in 7A and 7B were washed, and fluorescently-labeled THP-1 monocytes were added. Unbound THP-1 cells were washed after 30 min, and bound monocytes were counted with a fluorescence microscope using a 10× objective (5-10 different fields per dish). […] As a positive control, monocyte binding was determined using MAE-wt treated with TNF-α(100 U/ml for 2hrs).

MAE-wt cells [1] = experiment: H2O2 assay by oxidation of DCF-DA; type: cell-based, mouse; conditions: PEG-catalase 100 U/ml for 1 day before and during BMP4 treatment
Description: H2O2 assay: Cells grown in 6-well plates were treated with BMP4 or vehicle control for 18 hrs in the presence or absence of cell-permeable polyethylene glycol (PEG)-catalase (100 U/ml). Cells were then washed once with Hepes buffered saline solution (HBSS) followed by incubation with 7.5 μg/ml 2′, 7′-dichlorofluorescein diacetate (DCF-DA, Molecular Probes) in HBSS for 1 hr at 37 C° in the dark. Cells were washed with HBSS, incubated further for an additional 40 min in HBSS, and the DCF fluorescence intensities were measured in a Cytofluor Multi-Well plate reader (excitation at 475 nm and emission at 525 nm).
In addition, BMP4 stimulated production of H2O2 by 70% above control as determined by oxidation of DCF-DA (FIG. 10B). […] The cells were washed, incubated with DCF-DA, and the fluorescent intensities determined by fluorometry. Shown is a mean±SEM (n=3, p<0.05). In this assay, a redox cycling menadione (10 μM) was used as positive control (data not shown).

MAE-wt cells [2] = experiment: O2− assay by electron spin resonance spectroscopy with CMH spin probe; type: cell-based, mouse; conditions: MAE-wt exposed to OS for 1 day, noggin during OS exposure
Description: O2^− Assay: O2^− production was determined by electron spin resonance spectroscopy using methoxycarbonyl-2,2,5,5-tetramethyl-pyrrolidine (CMH) as a spin probe in the presence or absence of PEG-superoxide dismutase (PEG-SOD; 50 U/ml) to quantify the SOD-inhibitable portions of CM.
In FIG. 10A immediately following treatment of MAE wt cells with BMP4 (200 ng/ml) for 18 hrs, cells were trypsinized and reconstituted in Krebs-Hepes buffer. Equal number of cells was incubated with a spin trap CMH in the presence or absence of PEG-SOD (50 U/mL). The specific O2^− production was calculated by subtracting SOD-inhibitable portions from total O2^− production as determined by following CM production (mean±SEM, n=3, *p<0.05).

CC(=O)N[C@@H](CS)C(=O)O [N-Acetyl-cysteine, reference compound]
BMP4-induced ICAM-1 expression in presence of ROS scavenger (ICAM-1): 23 % of control

CC(C)C[C@@H](C=O)NC(=O)[C@H](CC(C)C)NC(=O)[C@H](CC(C)C)NC(=O)OCc1ccccc1 [MG132, reference compound] (Cbz-Leu-Leu-Leu-aldehyde)
effect on ICAM-1 expression induced by BMP4 (ICAM-1; HAEC, in the presence of NF-κB translocation inhibitor, inactive peptide or proteosome inhibitor): completely prevented

TNF-α [reference compound]
increase in monocyte adhesion above the control (MAE-p47−/− cells): approximately 4 fold
ICAM-1 expression above control cells (ICAM-1; HAEC, TNF-α 100 U/ml for 2 hr): 4 to 5 fold
effect on surface expression of E-selectin (E-selectin): strongly increased
effect on surface expression of VCAM-1 (VCAM-1): strongly increased

O=S(=O)(O)c1cc(O)c(O)c(S(=O)(=O)O)c1 [Tiron, reference compound]
effect on OS-induced ICAM-1 expression (ICAM-1; noggin 50 ng/ml): completely prevented
effect on BMP4-induced monocyte adhesion (MAEC): completely blocked

B1: PEG-catalase: cell-permeable polyethylene glycol-catalase converting H2O2 to H2O, 100 U/ml (protein, UniProt P00432 2-527, looked up)
Catalase: ADNRDPASDQMKHWKEQRAAQKPDVLTTGGGNPVGDKLNSLTVGPRGPLLVQDVVFTDEMAHFDRERIPERVVHAKGAGAFGYFEVTHDITRYSKAKVFEHIGKRTPIAVRFSTVAGESGSADTVRDPRGFAVKFYTEDGNWDLVGNNTPIFFIRDALLFPSFIHSQKRNPQTHLKDPDMVWDFWSLRPESLHQVSFLFSDRGIPDGHRHMNGYGSHTFKLVNANGEAVYCKFHYKTDQGIKNLSVEDAARLAHEDPDYGLRDLFNAIATGNYPSWTLYIQVMTFSEAEIFPFNPFDLTKVWPHGDYPLIPVGKLVLNRNPVNYFAEVEQLAFDPSNMPPGIEPSPDKMLQGRLFAYPDTHRHRLGPNYLQIPVNCPYRARVANYQRDGPMCMMDNQGGAPNYYPNSFSAPEHQPSALEHRTHFSGDVQRFNSANDDNVTQVRTFYLKVLNEEQRKRLCENIAGHLKDAQLFIQKKAVKNFSDVHPEYGSRIQALLDKYNEEKPKNAVHTYVQHGSHLSAREKANL
modifications: PEG conjugated
notes: cell-permeable polyethylene glycol-catalase converting H2O2 to H2O, 100 U/ml
effect on BMP-dependent H2O2 production (MAE-wt cells [1]): completely blocked
effect on OS-induced ICAM-1 expression (ICAM-1; noggin 50 ng/ml): completely prevented
BMP4-induced ICAM-1 expression in presence of ROS scavenger (ICAM-1): 26 % of control
effect on BMP4-induced monocyte adhesion (MAEC): completely blocked

B2: noggin (protein, UniProt Q13253 28-232, looked up)
Noggin: QHYLHIRPAPSDNLPLVDLIEHPDPIFDPKEKDLNETLLRSLLGGHYDPGFMATSPPEDRPGGGGGAAGGAEDLAELDQLLRQRPSGAMPSEIKGLEFSEGLAQGKKQRLSKKLRRKLQMWLWSQTFCPVLYAWNDLGSRFWPRYVKVGSCFSKRSCSVPEGMVCKPSKSVHLTVLRWRCQRRGGQRCGWIPIQYPIISECKCSC
notes: natural BMP antagonist
effect on OS-induced ICAM-1 expression (ICAM-1; noggin 50 ng/ml): completely inhibited
effect on TNF-α-induced ICAM-1 expression (ICAM-1; HAEC, TNF-α 100 U/ml for 6 hr, noggin 50 ng/ml): did not affect
effect on OS-induced monocyte adhesion (MAEC; MAEC, OS 24 hr, noggin 50 ng/ml): inhibited OS-induced monocyte adhesion
effect on OS-induced O2− increase (MAE-wt cells [2]): virtually blocked
